Common to all, as to assay type: biochemical
Experiment [1] concerns the target T1, human DDAH-1 (Homo sapiens, UniProt O94760). In words: Time-dependent inactivation of human DDAH-1.
Experiment [2] concerns the target T1, human DDAH-1. Put plainly: Concentration-response and mode-of-inhibition assays for IC50 and Ki. Particulars: for Hill Coefficient: concentration-response plot, substrate 50 µM; for Mode of inhibition: varying substrate and inhibitor, large effect on KM, not on kcat.
Experiment [3] concerns the target T1, human DDAH-1. Put plainly: Reversibility upon dilution into excess substrate. To be noted: enzyme-inhibitor mixture diluted into excess substrate.
Experiment [4] addresses T2, P. aeruginosa isoform of DDAH (Pseudomonas aeruginosa, UniProt Q9I4E3).
T2 sequence (Q9I4E3 1-254): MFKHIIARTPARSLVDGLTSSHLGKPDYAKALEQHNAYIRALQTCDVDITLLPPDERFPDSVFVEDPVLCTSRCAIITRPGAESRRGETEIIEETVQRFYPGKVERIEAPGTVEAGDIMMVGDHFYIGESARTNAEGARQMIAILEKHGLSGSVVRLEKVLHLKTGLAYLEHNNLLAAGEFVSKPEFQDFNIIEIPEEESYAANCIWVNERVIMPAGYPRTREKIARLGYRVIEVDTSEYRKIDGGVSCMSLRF
In words: Inhibition of P. aeruginosa DDAH by reversible inhibitors. Particulars: at concentrations up to 1 mM.

The text below walks through data of article PMC3444674 (Bioorganic & medicinal chemistry, 2012).

T1 sequence (O94760 whole entry): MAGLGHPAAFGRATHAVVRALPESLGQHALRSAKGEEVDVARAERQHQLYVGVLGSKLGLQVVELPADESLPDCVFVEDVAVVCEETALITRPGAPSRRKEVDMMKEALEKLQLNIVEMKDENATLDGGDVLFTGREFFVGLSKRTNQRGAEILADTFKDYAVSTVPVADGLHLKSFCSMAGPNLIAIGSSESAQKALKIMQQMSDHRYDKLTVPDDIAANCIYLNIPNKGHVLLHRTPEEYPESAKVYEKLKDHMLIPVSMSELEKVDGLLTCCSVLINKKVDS

As to `OCc1cc(Cl)ccn1` [Compound 11, 2-hydroxymethyl-4-chloropyridine], the kinact/KI (commonly the second-order rate constant of inactivation) at human DDAH-1 [1] was roughly 0.04 M⁻¹ s⁻¹.

In the case of `Cc1cc(Br)ccn1` [Compound 10, 2-methyl-4-bromopyridine], the kinact/KI on human DDAH-1 [1] was roughly 0.05 M⁻¹ s⁻¹.

For `CCc1nc2ccccc2[nH]1` [Compound 12, 2-ethyl-benzimidazole], at human DDAH-1 [2], the “Hill Coefficient” value stood at 1.5 ± 0.2 and the Mode of inhibition entry was “competitive”. In addition, the Reversibility of inhibition result at human DDAH-1 [3] is given as “full activity was rapidly regained”. Moreover, the “Inhibition of P. aeruginosa DDAH” value in experiment [4] is reported as “did not show any inhibition”.

On to `NCCSc1nc2ccccc2o1` [Compound 13, 2-(1,3-benzoxazol-2-ylthio)ethanamine], for which the “Ligand Efficiency” value on human DDAH-1 [2] (calculated from experimental Ki values) is 0.3 kcal / mol / heavy (non-hydrogen) atom. Moreover, on human DDAH-1 [2], the “Hill Coefficient” value is reported as 1.0 ± 0.3 and the Mode of inhibition entry is listed as “competitive”. The Reversibility of inhibition entry at human DDAH-1 [3] is listed as “full activity was rapidly regained”.
